Literature values as cited in US20190381003A1, “PHARMACEUTICAL COMPOSITION FOR TREATMENT OF INFLAMMATORY EAR DISEASES, METHOD FOR PRODUCING SAME AND METHOD FOR TREATMENT USING SAME COMPOSITION” (LIMITED LIABILITY COMPANY "KONSORTSIUM-PIK", priority 2017, published 2019).

What was measured:
[1] = following oral administration

CCCNC(C)C(=O)Nc1c(C)csc1C(=O)OC (racemic) [Articaine, (RS)-Methyl 4-methyl-3-(2-propylaminopropanoylamino)thiophene-2-carboxylate]
persistence of anaesthesia (following drug administration): 1 to 5 h | analgesic effects, potency vs. lidocaine (vs. lidocaine): 2 fold | analgesic effects, potency vs. procaine (vs. procaine): 6 fold

Cc1c(C(C)C)c(=O)n(-c2ccccc2)n1C [Propyphenazone, 1,5-Dimethyl-2-phenyl-4-propan-2-yl-pyrazol-3-one]
time to maximal blood level [1]: ≤ 30 min
